The source of these data is patent publication US7759345B2, “Antitumoral derivatives of ET-743” (priority 2001, dated 2010).

By GI50 is commonly meant the concentration that inhibits growth by half. Usually LC50 stands for the concentration that kills 50% of the test population. One may read the IC50 as the concentration that gives 50% inhibition.

One test relates to PANC-1. The test can be described thus: Inhibition of cells growth by colorimetric assay (SRB), PANC-1. The format is cell-based. To be noted: SRB, 48 hours exposure. On the procedure: (§1) 2°.—Inhibition of Cells Growth by Colorimetric Assay.
(§2) A colorimetric type of assay, using sulforhodamine B (SRB) reaction has been adapted for a quantitative measurement of cell growth and viability [following the technique described by Philip Skehan, et al. (1990), New colorimetric cytotoxicity assay for anticancer drug screening, J. Natl. Cancer Inst., 82:1107-1112]
(§3) This form of the assay employs 96 well cell culture microplates of 9 mm diameter (Faircloth, 1988; Mosmann, 1983). Most of the cell lines are obtained from American Type Culture Collection (ATCC) derived from different human cancer types.
(§4) Cells are maintained in RPMI 1640 10% FBS, supplemented with 0.1 g/l penicillin and 0.1 g/l streptomycin sulfate and then incubated at 37° C., 5% CO2 and 98% humidity. For the experiments, cells were harvested from subconfluent cultures using trypsin and resuspended in fresh medium before plating.
(§5) Cells are seeded in 96 well microtiter plates, at 5×10^3 cells per well in aliquots of 195 μl medium, and they are allowed to attach to the plate surface by growing in drug free medium for 18 hours. Afterward, samples are added in aliquots of 5 μl in a ranging from 10 to 10^−8 μg/ml, dissolved in DMSO/EtOH/PBS (0.5:0.5:99). After 48 hours exposure, the antitumor effect are measured by the SRB methodology: cells are fixed by adding 50 μl of cold 50% (wt/vol) trichloroacetic acid (TCA) and incubating for 60 minutes at 4° C. Plates are washed with deionized water and dried. One hundred μl of SRB solution (0.4% wt/vol in 1% acetic acid) is added to each microtiter well and incubated for 10 minutes at room temperature. Unbound SRB is removed by washing with 1% acetic acid. Plates are air dried and bound stain is solubilized with Tris buffer. Optical densities are read on a automated spectrophotometric plate reader at a single wavelength of 490 nm.
(§6) The values for mean+/−SD of data from triplicate wells are calculated. Some parameters for cellular responses can be calculated: GI=growth inhibition, TGI=total growth inhibition (cytostatic effect) and LC=cell killing (cytotoxic effect).
(§7) Obtained results may predict the usefulness of a certain drug as a potential cancer treatment. For this technique, compounds which show GI50 values smaller than 10 μg/ml are selected to continue with further studies. GI50's data allow to predict that not only could a drug be cystostatic, but also it could have a potential in terms of tumor reduction.

Another test deals with LoVo. The test can be described thus: Inhibition of cells growth by colorimetric assay (SRB), LoVo. The format is cell-based. The conditions noted are these: SRB, 48 hours exposure. As for the experimental part:
as §1, §2, §3, §4, §5, §6, §7

Another test has as its system K-562. The test can be described thus: Inhibition of cells growth by colorimetric assay (SRB), K-562. The format is cell-based. To be noted: SRB, 48 hours exposure. As for the experimental part: as §1, §2, §3, §4, §5, §6, §7
Another test concerns LoVo-Dox. The test is described as follows: Inhibition of cells growth by colorimetric assay (SRB), LoVo-Dox. The format is cell-based. To be noted: SRB, 48 hours exposure. As for the experimental part: as §1, §2, §3, §4, §5, §6, §7
Test [1] has as its system DU-145. The test can be described thus: Inhibition of cells growth by colorimetric assay (SRB), DU-145. The format is cell-based. The conditions noted are these: SRB, 48 hours exposure. As for the experimental part:
as §1, §2, §3, §4, §5, §6, §7

The next test deals with SK-MEL-28. The test is described as follows: Inhibition of cells growth by colorimetric assay (SRB), SK-MEL-28. The format is cell-based. The conditions noted are these: SRB, 48 hours exposure. As for the experimental part:
as §1, §2, §3, §4, §5, §6, §7

The test system of the next test is IGROV-ET. The test is described as follows: Inhibition of cells growth by colorimetric assay (SRB), IGROV-ET. The format is cell-based. The conditions noted are these: SRB, 48 hours exposure. As for the experimental part:
as §1, §2, §3, §4, §5, §6, §7

Another test has as its system IGROV-1. The test can be described thus: Inhibition of cells growth by colorimetric assay (SRB), IGROV-1. The format is cell-based. To be noted: SRB, 48 hours exposure. As for the experimental part:
as §1, §2, §3, §4, §5, §6, §7

The next test deals with SK-OV-3. The test can be described thus: Inhibition of cells growth by colorimetric assay (SRB), SK-OV-3. The format is cell-based. The conditions noted are these: SRB, 48 hours exposure. On the procedure:
as §1, §2, §3, §4, §5, §6, §7

For the next test, the system named is LNCaP. The test is described as follows: Inhibition of cells growth by colorimetric assay (SRB), LNCaP. The format is cell-based. To be noted: SRB, 48 hours exposure. As for the experimental part: as §1, §2, §3, §4, §5, §6, §7
The test system of test [2] is HT-29. The test is described as follows: Inhibition of cells growth by colorimetric assay (SRB), HT-29. The format is cell-based. To be noted: SRB, 48 hours exposure. The essentials: (§8)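 5×10^3 cells/well; 18 h attach; compound 10–10^−8 μg/ml in DMSO/EtOH/PBS (0.5:0.5:99), 48 h, 37 °C, 5% CO2; cold 50% TCA fix 60 min 4 °C; 0.4% SRB 10 min RT; Tris solubilization; OD 490 nm; triplicates.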

The subject of test [3] is A-549. The test can be described thus: Inhibition of cells growth by colorimetric assay (SRB), A-549. To be noted: SRB, 48 hours exposure. The format is cell-based. Summed up: as §8
The test system of test [4] is HT-29. The test is described as follows: Inhibition of cell growth by counting cells, HT-29. The format is cell-based, human. The conditions noted are these: Homo sapiens, HT-29, 72 h; three days of incubation; read-out: IC50 (molar) HT-29. The essentials:
(§9)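 Monolayer lines were plated at 1×10^4 cells per well with compound in medium containing 5% FCS. After a 3-day incubation at 37° C, crystal violet staining gave an approximate IC50, and cell counting of duplicate wells gave the dose-response IC50.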

A further test deals with P-388. The test can be described thus: Inhibition of cell growth by counting cells, P-388. The format is cell-based, mouse. To be noted: Mus musculus, P388, 72 h; three days of incubation; read-out: IC50 (molar) P-388. Summed up: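 Mouse P-388 lymphoid neoplasm suspension cells seeded at 1×10^4 cells/well in EMEM 5% FCS containing graded sample concentrations, in duplicate alongside drug-free growth controls. Cells counted by Coulter counter; % growth vs untreated gives dose-response curves, IC50 = concentration producing 50% growth inhibition.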

The next test relates to MEL-28. The test can be described thus: Inhibition of cell growth by counting cells, MEL-28. The format is cell-based, human. The conditions noted are these: Homo sapiens, SK-MEL-28, 72 h; three days of incubation; read-out: IC50 (molar) MEL-28. Summed up:
as §9

Test [5] has as its system A-549. The test is described as follows: Inhibition of cell growth by counting cells, A-549. The format is cell-based, human. The conditions noted are these: Homo sapiens, A549, 72 h; three days of incubation; read-out: IC50 (molar) A-549. The essentials: as §9
In test [6] the test system is DU-145. The test can be described thus: Inhibition of cell growth by counting cells, DU-145. The format is cell-based, human. The conditions noted are these: Homo sapiens, DU-145, 72 h; three days of incubation; read-out: IC50 (molar) DU-145. Summed up:
as §9

As to `COc1cc2c(cc1O)CCN[C@]21CS[C@@H]2c3c(OC(C)=O)c(C)c4c(c3[C@H](COC1=O)N1C2[C@H]2c3c(cc(C)c(OC)c3OC(C)C)C[C@@H]([C@@H]1O)N2C)OCO4` (some centres unmarked) [Compound 102], the GI50 in the test with PANC-1 (Homo sapiens, PANC-1, 48 h, PANC-1, read-out: PANC-1 GI50) came out at 55.4 nM; in the test on LoVo (Homo sapiens, LoVo, 48 h, LOVO, read-out: LOVO GI50), 69.8 nM; in the test on K-562 (Homo sapiens, K562, 48 h, K-562, read-out: K-562 GI50), 10.2 nM; in the test on LoVo-Dox (Homo sapiens, 48 h, LOVO-DOX, read-out: LOVO-DOX GI50) it was 417 nM; in the test with DU-145 [1] (Homo sapiens, DU-145, 48 h, DU-145, read-out: DU-145 GI50), 39.8 nM; with SK-MEL-28 (Homo sapiens, SK-MEL-28, 48 h, MEL-28, read-out: MEL-28 GI50), 37.9 nM. Besides, the GI50 was determined as 101 nM in the test with IGROV-ET (Homo sapiens, 48 h, IGROV-ET, read-out: IGROV-ET GI50); 35.3 nM in the test on IGROV-1 (Homo sapiens, IGROV-1, 48 h, IGROV, read-out: IGROV GI50); 41.3 nM in the test on SK-OV-3 (Homo sapiens, SK-OV-3, 48 h, SK-OV3, read-out: SK-OV3 GI50); 17.5 nM with LNCaP (Homo sapiens, LNCaP, 48 h, read-out: LNCAP GI50, LNCAP); 87 nM with HT-29 [2] (Homo sapiens, HT-29, 48 h, HT-29, read-out: HT-29 GI50); 152 nM in the test on A-549 [3] (Homo sapiens, A549, 48 h, A-549, read-out: A-549 GI50). The LC50 (concentration for 50% net cell kill) in the test on PANC-1 (Homo sapiens, PANC-1, 48 h, read-out: PANC-1 LC50, PANC-1) was 12400 nM. Also, in the test with PANC-1 (PANC-1), the “PANC-1 TGI” value came out at 1.39E-07. Besides, the LC50 (concentration for 50% cell killing) was 12400 nM in the test with LoVo (Homo sapiens, LoVo, 48 h, read-out: LOVO LC50, LOVO); 12400 nM in the test with HT-29 [2] (Homo sapiens, HT-29, 48 h, read-out: HT-29 LC50, HT-29); 1190 nM with A-549 [3] (Homo sapiens, A549, 48 h, read-out: A-549 LC50, A-549). Also, the “LOVO TGI” value in the test with LoVo (LOVO) is 4.58E-07. Further, in the test with K-562 (Homo sapiens, K562, 48 h, read-out: K-562 LC50, K-562), the LC50 (50% cell killing) was 126 nM. Also, the “K-562 TGI” value in the test with K-562 (K-562) is listed as 4.35E-08. Besides, the CC50 worked out at 12400 nM in the test on LoVo-Dox (Homo sapiens, 48 h, read-out: LOVO-DOX LC50, LOVO-DOX); 124 nM with DU-145 [1] (Homo sapiens, DU-145, 48 h, read-out: DU-145 LC50, DU-145); 128 nM in the test on SK-MEL-28 (Homo sapiens, SK-MEL-28, 48 h, read-out: MEL-28 LC50, MEL-28); 7810 nM with IGROV-ET (Homo sapiens, 48 h, read-out: IGROV-ET LC50, IGROV-ET); 134 nM with IGROV-1 (Homo sapiens, IGROV-1, 48 h, read-out: IGROV LC50, IGROV); 95.4 nM in the test with LNCaP (Homo sapiens, LNCaP, 48 h, read-out: LNCAP LC50, LNCAP). The “LOVO-DOX TGI” value with LoVo-Dox (LOVO-DOX) is 1.02E-06. In the test with DU-145 [1] (DU-145), the “DU-145 TGI” value is listed as 7.84E-08. The “MEL-28 TGI” value with SK-MEL-28 (MEL-28) is on record as 6.89E-08. Besides, in the test on IGROV-ET (IGROV-ET), the “IGROV-ET TGI” value is on record as 1.53E-06. The “IGROV TGI” value with IGROV-1 (IGROV) was found to be 7.63E-08. In the test on SK-OV-3 (Homo sapiens, SK-OV-3, 48 h, read-out: SK-OV3 LC50, SK-OV3), the LC50 was 124 nM. Moreover, the “SK-OV3 TGI” value in the test on SK-OV-3 (SK-OV3) was 1.10E-07. Also, the “LNCAP TGI” value with LNCaP (LNCAP) was 4.09E-08. Besides, the “HT-29 TGI” value with HT-29 [2] (HT-29) was 2.19E-06. Also, in the test on A-549 [3] (A-549), the “A-549 TGI” value worked out at 4.24E-07.
On to `CCCCCCCCCCCCCCCC(=O)Oc1cc2c(cc1OC)[C@@]1(CS[C@@H]3c4c(OC(C)=O)c(C)c5c(c4[C@H](COC1=O)N1C3[C@@H]3N[C@@H](Cc4cc(C)c(OC)c(OC(=O)CCCCCCCCCCCCCCC)c43)[C@@H]1C#N)OCO5)NCC2` (some centres unmarked) [Compound 208], for which the IC50 in the test with HT-29 [4], with P-388, with MEL-28, in the test with A-549 [5] and with DU-145 [6] was 8110 nM throughout.
